In patent publication US10702577B2, “Combination therapies using cyclosporine and aromatic cationic peptides” (STEALTH BIOTHERAPEUTICS CORP, priority 2010, dated 2020):
Square brackets hold non-standard residues; d marks the D form. Ends that are not written are not given here. Peptide text beside a SMILES is read from it.

Experiments:
[1] = system: several mammalian cell types; details: energy-independent manner; Zhao et al. 2003; cited from earlier work
[2] = system: transplanted tissue or organ; cyclosporine nephrotoxicity; test: Peptide with cyclosporine in transplant patients: organ health and nephrotoxicity (Example 7); type: in vivo; details: subjects who receive the peptide versus those who do not; predicted
Source text: To prevent organ or tissue rejection after transplant, patients often receive a regimen of the immunosuppressive drug cyclosporine. Cyclosporine levels are established and maintained in the subject at levels to effectively suppress the immune system. However, nephrotoxicity is a concern for these subjects, and the level of the drug in the subject's blood is monitored carefully. Cyclosporine doses are adjusted accordingly in order to not only prevent rejection, but also to deter these potentially damaging side effects. Typically, an adult transplant patient receives cyclosporine as follows: IV: 2 to 4 mg/kg/day IV infusion once a day over 4 to 6 hours, or 1 to 2 mg/kg IV infusion twice a day over 4 to 6 hours, or 2 to 4 mg/kg/day as a continuous IV infusion over 24 hours. Capsules: 8 to 12 mg/kg/day orally in 2 divided doses. Solution: 8 to 12 mg/kg orally once a day. […]
A therapeutically effective amount of an aromatic-cationic peptide or pharmaceutically acceptable salt thereof such as acetate or trifluoroacetate salt is administered to subjects prior to, during and/or after transplant as show in Table 13 above. Subjects are monitored for health and function of the transplanted tissue or organ, as well as the incidence and severity of nephrotoxicitity often seen with prolonged cyclosporine administration.

mu-opioid receptor = details: result in words; no data shown; cited from earlier work

Compound: 2′,6′-Dmt-D-Arg-Phe-Lys-NH2 [SS-02]
- penetration of the plasma membrane [1]: readily penetrates the plasma membrane

Compound: Cc1cc(O)cc(C)c1C[C@H](NC(=O)[C@H](N)CCCNC(=N)N)C(=O)N[C@@H](CCCCN)C(=O)N[C@@H](Cc1ccccc1)C(N)=O [PEPTIDE, D-Arg-2′6′-Dmt-Lys-Phe-NH2] (HELM PEPTIDE1{[dR].[Cc1cc(O)cc(C)c1C[C@H](N[*:1])C(=O)[*:2]].K.F.[am]}$$$$V2.0)
- tolerated cyclosporine dosage [2]: able to maintain a higher and/or more consistent cyclosporine dosage for longer periods of time

Compound: F[dR]FK-NH2 [SS-20]
- mu-opioid receptor agonist activity (mu-opioid receptor): does not have mu-opioid receptor agonist activity

Compound: Tyr-D-Arg-Phe-Lys-NH2 [SS-01]
- mu-opioid receptor agonist activity (mu-opioid receptor): has mu-opioid receptor agonist activity
